Laboratory results taken from patent US20160345855A1, “METHODS OF TREATING BRAIN DISORDERS OR IDENTIFYING BIOMARKERS RELATED THERETO” (NORTHWESTERN UNIVERSITY, priority 2013, published 2016).
“Also recorded” adds a separate entry of the source. Peptide text beside a SMILES is read from it.

Assays:
NMDAR [1] = conditions: cited from earlier work; for side effects: human clinical studies; for Hamilton Depression Rating Score: patients suffering with refractory depression
NMDAR [2] = conditions: in vivo; cited from earlier work
healthy young adults [3] = experiment: fMRI (BOLD) during item category association task, Example 2 (randomized, single-blind, parallel group); assay type: in vivo, humans; conditions: single IV 5 mg/kg
From the text: We investigated whether a single IV administration of GLYX-13 compared to placebo changed functional activation among healthy young adults performing a learning and memory task while undergoing fMRI.
The inclusion criteria for adult subjects participating in the study were as follows (i) 18-40 years of age; (ii) estimated IQ within what is considered to be the normal range (80-120); and (iii) no personal medical, neurologic, or psychiatric history, or reported history of psychiatric illness among first degree relatives.
After initial (Visit 1), patients were randomized to either single IV administration of GLYX-13 (5 mg/kg) or placebo on subsequent visit (Visit 2). fMRI studies started within 20 minutes post-infusion. Subjects returned approximately one week after Visit 2 to complete behavioral tasks in scanner and assess any adverse effects.
Item Category Association Task (See, e.g., Onur O A, Schlaepfer T E, Kukolja J, Bauer A, Jeung H, Patin A, Otte D-M, Shah N J, Maier W, Kendrick K M, Fink G R, Hurleman R (2010).
The N-methyl-D-aspartate receptor co-agonist D-Cycloserine facilitates declarative learning and hippocampal activity in humans. Biol. Psychiatry, 67, 1205). Subjects were asked to learn arbitrary group membership (A or B) of 3-digit numbers. Visual feedback was provided immediately following choice (button press) to indicate correct item category association. There were eight category memberships to be learned, which were presented over eight cycles (i.e., 7 repetitions) for a total of 64 trials per run; three sets of learning runs (each with different 3-digit number sets. See FIG. 3.
3T TIM Trio system (Siemens Medical Systems) with 32 channel coil. […]

healthy young adults [4] = experiment: fMRI (BOLD) during item category association task, Example 1; assay type: in vivo, humans; conditions: IV-injection of 5 mg
Experimental: GLYX-13 was used to investigate whether this compound changed functional activation in hippocampal and related learning regions healthy young adults.
Twenty-four healthy individuals underwent functional magnetic resonance imaging (fMRI) after randomization to IV-injection of 5 mg of GLYX-13 (n=12) or placebo (n=12). Groups were matched on demographic factors, estimated IQ, and dose volume. While undergoing scanning, subjects performed an item category association task in which they learned over repeated cycles which of two categories a series of numbers were assigned. Change in blood-oxygen level dependent (BOLD) activity was measured during correctly performed trials, and differences in activation between groups were compared across learning cycles.

SMILES	side effects (NMDAR [1])	Hamilton Depression Rating Score (NMDAR [1])	antidepressant activity (NMDAR [2])	nootropic, neuroprotective, antinociceptive and cognitive activity (NMDAR [2])	psychotomimetic side effects (NMDAR [2])	number of identified regions with significant group by cycle interaction effects on extracted mean % signal change (healthy young adults [3]; FIGS. 7A-7F)	behavioral task performance (learning effect across cycle) (healthy young adults [3]; compared with Placebo, FIG. 5)	BOLD activation / extracted mean % signal change vs. Placebo (healthy young adults [3]; correct trials, FIGS. 7A-7F, 5 mg/kg)	regions in which Placebo demonstrated greater activation compared to GLYX-13 (healthy young adults [4])	BOLD activation over learning cycles compared to Placebo (healthy young adults [4]; n=12 per group, correctly performed trials, hippocampus, parahippocampal gyrus, amygdala, superior temporal, middle frontal, inferior frontal gyri)	task accuracy over successive cycles (healthy young adults [4]; both groups (GLYX-13 and placebo))
C[C@@H]([C@@H](O)c1ccc(O)cc1)N1CCC(O)(c2ccccc2)CC1 [CPC-101.606]	severe	significant reductions									
C[C@@H](O)[C@H](N)C(=O)N1CCC[C@H]1C(=O)N1CCC[C@H]1C(=O)N[C@H](C(N)=O)[C@@H](C)O [GLYX-13, L-threonyl-L-prolyl-L-prolyl-L-threonine amide] (H-TPPT-NH2)			rapid-acting, robust, and sustained antidepressant activity	exhibits nootropic, neuroprotective and antinociceptive activity, and enhances learning, memory and cognition in vivo	lack the pyschotomimetic side effects	six	robust and comparable learning effect across cycle	enhanced activation; also recorded: enhanced BOLD signal change	no regions	enhanced activation over learning cycles in several learning and memory regions	increased task accuracy over successive cycles
CNC1(c2ccccc2Cl)CCCCC1=O (stereo not shown) [ketamine]	severe	significant reductions									
